Values joined by “and” are separate entries in the source; they are usually repeats but may differ in a detail not shown here. Identical values can stand only once. Non-standard residues stand in square brackets, D forms with d. Residues, ends and D or L forms follow the SMILES beside them. pS = N[C@@H](COP(=O)(O)O)C(=O)O
Legend:
[1] = tested on: 14-3-3 proteins (beta/alpha, gamma, epsilon, zeta, eta and theta); experiment: Alanine scanning PRISMA pull-down, 14-3-3 proteins; format: binding, human; conditions: PRISMA pull-down from HEK-293T lysate, LFQ, triplicates
From the text: In this experiment, each amino acid from the −5 to +5 positions surrounding the phosphorylated residue was mutated to alanine, except for original alanine residues which were mutated to glycine. The experiment also included the wild-type phosphorylated, wild-type non-phosphorylated, disease-associated mutant, and aspartic acid mutant peptides. These 15 peptides were synthesized on a cellulose membrane in triplicates (n = 3 biological replicates) to facilitate the pull-down of proteins from HEK-293T cell lysate. The synthesis of peptides, pull-downs, and sample preparation for mass spectrometry followed the procedures described earlier for the PRISMA screen. Subsequently, samples were eluted from StageTips using a solution containing 50% acetonitrile and 0.1% formic acid, dried, and resuspended in a solution containing 3% acetonitrile and 0.1% formic acid. […]
The acquired mass spectra were subjected to further analysis using MaxQuant (version 1.6.3.4). […] The LFQ values of significant proteins were z-scored by row and hierarchical clustering was performed (Fig. 6A and Supplementary Data 5). To better visualize the 14-3-3 proteins, their LFQ values were extracted from the whole table and were z scored and clustered individually (Fig. 5C).

[2] = molecular target: T1, 14-3-3 epsilon (YWHAE) (Homo sapiens, UniProt P62258); experiment: Isothermal titration calorimetry (ITC) of GATAD1 peptides with 14-3-3ε; format: binding; conditions: 18 °C, 400 µM peptide in syringe, 25 µM 14-3-3ε in chamber, 20 mM HEPES pH 7.0, 150 mM NaCl, 2 mM DTT
T1 construct: residues 1 and 236-255 are disordered and therefore not visible in the electron density; GST (N, cleaved yes); made in house; host or cells: Escherichia coli C41 (DE3)
T1 sequence (P62258 1-255): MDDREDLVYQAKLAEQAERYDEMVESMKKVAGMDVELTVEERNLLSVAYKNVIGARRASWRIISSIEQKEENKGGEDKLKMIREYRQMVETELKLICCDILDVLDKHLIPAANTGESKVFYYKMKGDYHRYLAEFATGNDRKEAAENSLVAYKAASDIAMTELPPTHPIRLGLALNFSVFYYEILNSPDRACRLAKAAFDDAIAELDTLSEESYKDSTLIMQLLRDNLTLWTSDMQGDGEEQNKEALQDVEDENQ
Description: The 14-3-3ε (YWHAE) cDNA was purchased from Twist Bioscience in the pTwist Chlor High Copy vector and cloned into the pGEX6P1 plasmid (GE Healthcare) for recombinant expression as a GST-fusion protein followed by a Prescission protease cleavage site. The plasmid was freshly transformed into Escherichia coli C41 (DE3) cells. Cultures were grown in terrific broth supplemented with ampicillin (100 μg/ml) at 37 °C and 80 rpm until an optical density at 600 nm of 0.7 was reached. […] Cells were harvested by centrifugation at 4000 g and frozen at −20 °C.
Following resuspension in lysis buffer (50 mM HEPES/NaOH pH 7.5, 500 mM NaCl and 3 mM Dithiothreitol (DTT)) supplemented with 1 mg deoxyribonuclease I (DNaseI, Roche) and protease inhibitor 4-(2-Aminoethyl) benzenesulfonyl fluoride hydrochloride S7(AEBSF), cells were disrupted using a microfluidizer (Microfluidics). The cell extract was centrifuged at 55,000 g for 45 min at 4 °C to remove insoluble parts. The cleared supernatant was applied onto a prepacked Glutathione Sepharose 4B column (Cytiva) equilibrated in the lysis buffer. The column was extensively washed with lysis buffer. To cleave off the GST tag, 1 mg PreScission protease was diluted in 5 ml OCC buffer (50 mM HEPES/NaOH pH 7.5, 150 mM NaCl, and 3 mM DTT), applied to the column material, and incubated overnight at 4 °C. Cleaved 14-3-3ε protein was eluted from the column using OCC buffer, concentrated and loaded onto an 16/60 S200 column (Cytiva) equilibrated in SEC buffer (20 mM HEPES/NaOH pH 7.5, 150 mM NaCl and 2 mM DTT). Pure and homogenous 14-3-3ε was concentrated to 13 mg/ml, flash-frozen in liquid nitrogen, and stored at −80 °C until further use.
GATAD1 peptides used in these experiments were obtained from JPT peptide technologies with an N-terminus in amine and a C-terminus in amide form with 95% purity. ITC experiments were performed using a PEAQ-ITC microcalorimeter (Malvern). All titrations were performed at 18 °C with 400 µM peptide in the syringe and 25 µM 14-3-3ε in the reaction chamber. The protein and the titration components were dissolved in a buffer containing 20 mM HEPES pH 7.0, 150 mM NaCl, and 2 mM DTT. Malvern software was used for data visualization and fitting. The raw ITC results can be found in Supplementary Fig. 42.

[3] = tested on: 14-3-3 family proteins; experiment: PRISMA peptide pull-down screen, 14-3-3 binding to GATAD1 peptides; set-up: species or system human; conditions: LFQ volcano plot and SILAC scatter plot; HEK-293 lysate, triplicates
From the text: (§1) A total of 117 peptides, consisting of 15 amino acids each, were synthesized in situ on a cellulose membrane using SPOT synthesis techniques[25] provided by JPT Peptide Technologies in Berlin, Germany. Among these peptides, 39 were wild-type non-phosphorylated, 39 were mutated, and 39 were phosphorylated. Whenever possible, the mutation site was positioned at position 7, which is in the center of the immobilized peptides, with their C-termini serving as the point of immobilization.
(§2) For the experimental procedure, three membranes were initially incubated with the lysis buffer (HEPES (50 mM, pH 7.9), NaCl (150 mM), EGTA (1 mM), MgCl2 (1 mM), glycerol (20%), NP-40 (1%), SDS (0.1%), and sodium deoxycholate (0.5%)). The membranes were incubated with the lysis buffer until completely moistened. […]
(§3) HEK-293 cells were lysed with the lysis buffer and the protein concentration was measured using DC protein assay (Bio-Rad). […]
(§4) During the analysis, peptides were eluted from the analytical column at a flow rate of 500 nl/min, employing a gradient as follows: 5 to 10% B over 5 min, 10 to 40% B over 60 min, 40 to 99% B over 5 min, and maintaining 99% B for 5 min. The samples were measured in the orbitrap fusion mass spectrometer using the following methods: a full scan was performed with a resolution of 120,000 over an m/z range of 300–1500. […]

[4] = tested on: GRB2; experiment: PRISMA peptide pull-down screen, GRB2 binding to the EGFR control peptide; set-up: species or system human; conditions: PRISMA pull-down from SILAC-labelled HEK-293 lysate; in all three replicates
From the text: as §1, §2, §3, §4

LRNTKYKDAPAAEKK [S102D, phosphomimetic S102D mutant GATAD1 peptide]
14-3-3 proteins pulled down in alanine scanning (in words) [1]: did not interact
Interaction with 14-3-3ε by ITC (in words) [2]: do not interact

CC(C)C[C@H](N)C(=O)N[C@@H](CCCNC(=N)N)C(=O)N[C@@H](CC(N)=O)C(=O)N[C@H](C(=O)N[C@@H](CCCCN)C(=O)N[C@@H](Cc1ccc(O)cc1)C(=O)N[C@@H](CCCCN)C(=O)N[C@@H](COP(=O)(O)O)C(=O)N[C@@H](C)C(=O)N1CCC[C@H]1C(=O)N[C@@H](C)C(=O)N[C@@H](C)C(=O)N[C@@H](CCC(=O)O)C(=O)N[C@@H](CCCCN)C(=O)N[C@@H](CCCCN)C(N)=O)[C@@H](C)O [GATAD1_phos] (H-LRNTKYK[pS]APAAEKK-NH2)
Specific and differential binding of 14-3-3 proteins in PRISMA (in words) [3]: specifically interacts with the multiple 14-3-3 protein family members
N (stoichiometry) by ITC [2]: 1.42 ± 0.04
Kd ([2]; PEAQ-ITC, peptides N-terminal amine, C-terminal amide, read-out: Kd (binding constant) by ITC): ~3 µM and 3.4 µM

TFLPVPEpYINQSVPK [EGFR_phos, positive control, well-characterized EGFR-derived phosphopeptide]
SILAC ratio phos/mut of GRB2 [4]: > 20
SILAC ratio phos/wt of GRB2 [4]: > 20

Source: paper PMC11009412, “Pathogenic mutations of human phosphorylation sites affect protein–protein interactions” (Nature Communications, 2024)
